{
  "source": "patent US8598344B2",
  "about": "“CDKI pathway inhibitors and uses thereof” (Senex Biotechnology, priority 2009, dated 2013)",
  "key": {"ROCK2": {"biological_target": "T1, ROCK2 (Homo sapiens, UniProt O75116)", "T1 construct": "purchased KinomeScan, a division of Ambit Biosciences", "T1 sequence (O75116 whole entry)": "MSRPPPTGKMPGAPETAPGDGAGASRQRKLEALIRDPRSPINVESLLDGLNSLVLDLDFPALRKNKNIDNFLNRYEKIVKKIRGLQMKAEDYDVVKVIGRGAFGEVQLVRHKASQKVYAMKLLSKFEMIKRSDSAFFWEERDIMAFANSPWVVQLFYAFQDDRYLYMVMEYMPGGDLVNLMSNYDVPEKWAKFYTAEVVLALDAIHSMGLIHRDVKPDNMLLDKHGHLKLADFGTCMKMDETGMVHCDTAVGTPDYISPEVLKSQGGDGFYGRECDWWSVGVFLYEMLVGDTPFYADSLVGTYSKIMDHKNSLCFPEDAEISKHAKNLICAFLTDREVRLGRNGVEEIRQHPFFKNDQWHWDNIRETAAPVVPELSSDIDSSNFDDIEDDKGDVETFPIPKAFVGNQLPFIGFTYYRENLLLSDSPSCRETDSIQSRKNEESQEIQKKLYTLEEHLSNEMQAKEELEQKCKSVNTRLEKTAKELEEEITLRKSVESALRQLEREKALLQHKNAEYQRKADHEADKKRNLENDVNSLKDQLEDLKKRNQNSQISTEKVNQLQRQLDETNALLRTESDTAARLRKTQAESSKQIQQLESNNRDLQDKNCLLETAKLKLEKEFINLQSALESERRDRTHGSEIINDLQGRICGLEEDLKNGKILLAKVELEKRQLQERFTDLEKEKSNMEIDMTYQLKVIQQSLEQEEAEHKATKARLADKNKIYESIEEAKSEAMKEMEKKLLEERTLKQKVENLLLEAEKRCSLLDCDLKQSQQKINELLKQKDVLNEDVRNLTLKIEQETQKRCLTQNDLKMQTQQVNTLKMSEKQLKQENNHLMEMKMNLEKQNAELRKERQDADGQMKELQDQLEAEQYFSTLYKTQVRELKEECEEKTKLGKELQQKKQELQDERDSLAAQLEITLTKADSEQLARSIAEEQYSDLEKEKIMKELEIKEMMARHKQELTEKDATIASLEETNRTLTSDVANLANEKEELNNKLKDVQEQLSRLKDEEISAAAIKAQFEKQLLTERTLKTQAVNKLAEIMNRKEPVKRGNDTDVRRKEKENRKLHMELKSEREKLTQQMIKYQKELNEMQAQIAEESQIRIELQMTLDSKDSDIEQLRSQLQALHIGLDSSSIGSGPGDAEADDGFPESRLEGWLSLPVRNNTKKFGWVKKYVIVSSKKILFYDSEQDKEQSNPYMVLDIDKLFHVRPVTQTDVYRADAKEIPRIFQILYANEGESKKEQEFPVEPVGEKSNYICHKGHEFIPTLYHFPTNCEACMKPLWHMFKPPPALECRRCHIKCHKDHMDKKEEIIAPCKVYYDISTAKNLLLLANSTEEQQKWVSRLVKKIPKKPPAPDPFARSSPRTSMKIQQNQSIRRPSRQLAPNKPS", "assay": "KinomeScan competition binding assay", "conditions": "10 μM compound", "protocol": "(§1) The KINOMEscan assay has been described in detail in Fabian et al., Nat. Biotechnol. 23: 329 (2005) and Karaman et al., Nat. Biotechnol. 26: 127 (2008).\n(§2) The KinomeScan assay is based on a competition binding assay that quantitatively measures the ability of a compound to compete with an immobilized, ATP site directed ligand. The assay is performed by combining three components: DNA-tagged kinase; immobilized ligand; and a test compound. The ability of the test compound to compete with the immobilized ligand is measured via quantitative PCR of the DNA tag."}, "JNK1": {"biological_target": "T2, JNK1 (Homo sapiens, UniProt P45983)", "T2 construct": "purchased KinomeScan, a division of Ambit Biosciences", "T2 sequence (P45983 whole entry)": "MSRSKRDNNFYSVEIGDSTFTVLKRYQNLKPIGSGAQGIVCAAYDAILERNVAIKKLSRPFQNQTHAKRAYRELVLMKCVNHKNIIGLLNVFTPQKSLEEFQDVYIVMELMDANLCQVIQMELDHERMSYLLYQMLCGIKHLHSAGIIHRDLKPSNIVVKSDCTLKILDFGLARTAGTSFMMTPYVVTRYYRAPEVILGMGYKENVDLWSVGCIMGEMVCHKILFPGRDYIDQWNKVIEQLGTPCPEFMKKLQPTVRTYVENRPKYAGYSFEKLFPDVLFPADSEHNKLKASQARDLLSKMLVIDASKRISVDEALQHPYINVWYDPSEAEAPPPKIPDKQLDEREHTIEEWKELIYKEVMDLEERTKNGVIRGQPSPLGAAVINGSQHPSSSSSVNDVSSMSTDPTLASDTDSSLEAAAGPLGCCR", "assay": "KinomeScan competition binding assay", "conditions": "10 μM compound", "protocol": "as §1, §2"}, "PRKG2": {"biological_target": "T3, PRKG2 (Homo sapiens, UniProt Q13237)", "T3 construct": "purchased KinomeScan, a division of Ambit Biosciences", "T3 sequence (Q13237 whole entry)": "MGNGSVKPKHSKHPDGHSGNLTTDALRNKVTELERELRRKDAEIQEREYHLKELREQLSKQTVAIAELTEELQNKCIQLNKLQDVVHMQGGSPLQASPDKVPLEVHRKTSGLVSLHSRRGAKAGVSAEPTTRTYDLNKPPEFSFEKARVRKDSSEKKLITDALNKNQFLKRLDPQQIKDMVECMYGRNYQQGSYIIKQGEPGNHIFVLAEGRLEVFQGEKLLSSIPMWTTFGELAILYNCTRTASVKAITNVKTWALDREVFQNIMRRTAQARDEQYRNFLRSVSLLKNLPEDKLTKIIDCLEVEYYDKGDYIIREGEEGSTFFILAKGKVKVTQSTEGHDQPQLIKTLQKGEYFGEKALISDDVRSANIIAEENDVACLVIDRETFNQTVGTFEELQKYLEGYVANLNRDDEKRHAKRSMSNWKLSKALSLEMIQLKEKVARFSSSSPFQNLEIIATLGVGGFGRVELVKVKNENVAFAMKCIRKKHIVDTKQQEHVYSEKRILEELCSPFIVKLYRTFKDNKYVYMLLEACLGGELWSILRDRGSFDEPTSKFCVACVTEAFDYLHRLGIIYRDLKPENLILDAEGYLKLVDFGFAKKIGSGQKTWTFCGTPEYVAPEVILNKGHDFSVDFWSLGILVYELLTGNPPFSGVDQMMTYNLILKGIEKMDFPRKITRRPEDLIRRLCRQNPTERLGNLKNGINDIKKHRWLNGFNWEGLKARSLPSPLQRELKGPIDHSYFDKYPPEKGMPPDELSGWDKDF", "assay": "KinomeScan competition binding assay", "conditions": "10 μM compound", "protocol": "as §1, §2"}, "LTK": {"biological_target": "T4, LTK (Homo sapiens, UniProt P29376)", "T4 construct": "purchased KinomeScan, a division of Ambit Biosciences", "T4 sequence (P29376 17-864)": "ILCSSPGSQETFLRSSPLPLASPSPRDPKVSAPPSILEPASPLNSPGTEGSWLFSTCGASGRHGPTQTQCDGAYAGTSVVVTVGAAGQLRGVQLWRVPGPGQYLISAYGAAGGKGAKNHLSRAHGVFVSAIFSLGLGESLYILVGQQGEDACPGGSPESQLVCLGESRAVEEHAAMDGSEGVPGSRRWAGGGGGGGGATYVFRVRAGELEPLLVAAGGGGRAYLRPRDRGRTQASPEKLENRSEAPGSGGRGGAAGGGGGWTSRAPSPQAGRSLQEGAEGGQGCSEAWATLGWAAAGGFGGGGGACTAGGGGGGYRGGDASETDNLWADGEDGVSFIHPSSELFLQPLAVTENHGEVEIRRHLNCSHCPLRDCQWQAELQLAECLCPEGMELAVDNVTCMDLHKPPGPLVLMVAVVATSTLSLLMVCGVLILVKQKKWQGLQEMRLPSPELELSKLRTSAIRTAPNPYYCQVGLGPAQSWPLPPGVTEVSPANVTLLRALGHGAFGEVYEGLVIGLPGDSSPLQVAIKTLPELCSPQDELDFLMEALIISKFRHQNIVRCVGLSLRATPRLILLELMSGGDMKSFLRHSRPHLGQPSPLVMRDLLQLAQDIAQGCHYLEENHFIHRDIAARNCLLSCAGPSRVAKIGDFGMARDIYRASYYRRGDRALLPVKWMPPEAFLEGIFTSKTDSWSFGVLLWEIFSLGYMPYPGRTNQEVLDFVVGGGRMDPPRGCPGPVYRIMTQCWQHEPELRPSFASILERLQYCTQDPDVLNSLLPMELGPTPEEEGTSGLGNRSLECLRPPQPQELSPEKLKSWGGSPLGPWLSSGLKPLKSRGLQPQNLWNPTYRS", "assay": "KinomeScan competition binding assay", "conditions": "10 μM compound", "protocol": "as §1, §2"}, "HIV-1": {"system": "HIV-1", "conditions": "read-out: EC50, decrease in fraction of HIV-infected (p24-positive) cells; day 5", "quoted_text": "HIV replication was assayed in a cell-to-cell model of HIV-1 transmission using chronically infected H9IIIB as donor cells cocultivated with uninfected CEM-ss leukemia cell line as recipient cells. 1 ml of RPMI1640 medium (+10% Fetal Bovine Serum+Penicillin/Streptomycin+glutamine) containing 10^4 H9IIIB cells was mixed with 1 ml of the same medium containing 10^6 CEM-ss cells. […] The suspended cells were placed into a 25 cm^2 flask and incubated at 37° C., 5% CO2. On day 3, the cells were counted with a light microscope and an hemocytometer after trypan blue staining, which was used to determine the fraction of viable (trypan blue negative) cells. On day 5, the fraction of HIV-infected cells was determined using the K57-FITC conjugated monoclonal antibody to the HIV p24 antigen. For this measurement, the cells in each flask were mixed, 1 ml of cell culture was removed from each flask and placed into round bottom centrifuge tubes. The cells were separated from the medium by centrifugation at 1500 RPM for 5 minutes, the supernatants were aspirated and discarded and the cell pellets suspended in a fixative. […] The final pellets were suspended in 0.5 ml of PBS and the percentage of HIV p24-positive cells was determined by FACS analysis."}},
  "data": [
    {"smiles": "N#Cc1ccc2ncnc(NCCc3ccccc3)c2c1", "note": "[compound 1]", "values": [
      {"measurement": "POC binding, ROCK2", "setting": "ROCK2", "value": 89, "unit": "POC"},
      {"measurement": "POC binding, JNK1", "setting": "JNK1", "value": 45, "unit": "POC"},
      {"measurement": "POC binding, PRKG2", "setting": "PRKG2", "value": 85, "unit": "POC"},
      {"measurement": "POC binding, LTK", "setting": "LTK", "value": 100, "unit": "POC"},
      {"measurement": "EC50", "setting": "HIV-1", "value": 580, "unit": "nM"}
    ]}
  ]
}
